Measured values published in EP3146981A1, “COVALENTLY ATTACHED AZOBENZENE SWITCHES AND THEIR USES FOR THE OPTICAL CONTROL OF TARGET PROTEINS” (Ludwig-Maximilians-Universität München, priority 2015, dated 2017).
Where two headings read alike, the source gives them in different places. One block for each compound: values may come before it.

Experiments:
[1] = Stability of the labeling solution in aqueous buffer (readout: photoactivation of SNAG-mGluR2); format: physicochemical; conditions: one week following dilution in aqueous buffer at room temperature
[2] = test system: SNAP-mGluR2 in hippocampal neurons; test: Whole cell patch-clamp of hippocampal neurons, excitability; format: cell-based, mice
Description: Dissociated hippocampal neuron cultures were prepared from postnatal P0 or P1 mice on 12 mm glass coverslips as previously described (Levitz et al., 2013). Neurons were transfected with SNAP-mGluR2 (1.5 µg/well) and tdTomato (0.25 µg/well as a transfection marker) using the calcium phosphate method at DIV9. Whole cell patch clamp experiments were performed 3-6 days after transfection (DIV 12-15). Labeling was performed using the same protocol as HEK cells except BGAG was diluted in extracellular recording solution containing (in mM): 138 NaCl, 1.5 KCl, 1.2 MgCl2, 2.5 CaCl2, 10 glucose, 5 HEPES, pH 7.4. Glass pipettes of resistance 4-8 MΩ were filled with an intracellular solution containing (in mM): 140 K-gluconate, 10 NaCl, 5 EGTA, 2 MgCl2, 1 CaCl2, 10 HEPES, 2 MgATP and 0.3 Na2GTP, pH 7.2. Autaptic neurons were voltage clamped at -60 mV and a 2-3 ms voltage step to +20 mV was used to evoke a spike followed (~3-5 ms later) by an EPSC. Stimulation was performed once every 12 s to prevent rundown.
We first expressed SNAP-mGluR2-GFP in dissociated hippocampal neurons and labeled with BG-Alexa-647 to determine if SNAP-BG conjugation could occur efficiently in neuronal cultures, which are considerably denser than HEK 293T cell cultures. […]

SNAP-tag = test: In vitro SNAP-tag labeling, SDS page
Description: Scale bars represents 50 µM (top) and 10 µM (bottom). • Figure 9: SDS page after in vitro SNAP-tag labeling (New England Biolabs, #P9312S) with BGAG12 and D-MAG. Reductive (dithiothreitol, DTT), oxidative (oxidized glutathione, GSSG) or neutral conditions (no additive) were employed according to the manufacturer's instructions.

wild type mGluR2 = wild type mGluR2 (Rattus norvegicus, UniProt P31421); conditions: cells expressing wild type mGluR2 (no SNAP tag) incubated with BGAG12
wild type mGluR2, sequence (P31421 19-872): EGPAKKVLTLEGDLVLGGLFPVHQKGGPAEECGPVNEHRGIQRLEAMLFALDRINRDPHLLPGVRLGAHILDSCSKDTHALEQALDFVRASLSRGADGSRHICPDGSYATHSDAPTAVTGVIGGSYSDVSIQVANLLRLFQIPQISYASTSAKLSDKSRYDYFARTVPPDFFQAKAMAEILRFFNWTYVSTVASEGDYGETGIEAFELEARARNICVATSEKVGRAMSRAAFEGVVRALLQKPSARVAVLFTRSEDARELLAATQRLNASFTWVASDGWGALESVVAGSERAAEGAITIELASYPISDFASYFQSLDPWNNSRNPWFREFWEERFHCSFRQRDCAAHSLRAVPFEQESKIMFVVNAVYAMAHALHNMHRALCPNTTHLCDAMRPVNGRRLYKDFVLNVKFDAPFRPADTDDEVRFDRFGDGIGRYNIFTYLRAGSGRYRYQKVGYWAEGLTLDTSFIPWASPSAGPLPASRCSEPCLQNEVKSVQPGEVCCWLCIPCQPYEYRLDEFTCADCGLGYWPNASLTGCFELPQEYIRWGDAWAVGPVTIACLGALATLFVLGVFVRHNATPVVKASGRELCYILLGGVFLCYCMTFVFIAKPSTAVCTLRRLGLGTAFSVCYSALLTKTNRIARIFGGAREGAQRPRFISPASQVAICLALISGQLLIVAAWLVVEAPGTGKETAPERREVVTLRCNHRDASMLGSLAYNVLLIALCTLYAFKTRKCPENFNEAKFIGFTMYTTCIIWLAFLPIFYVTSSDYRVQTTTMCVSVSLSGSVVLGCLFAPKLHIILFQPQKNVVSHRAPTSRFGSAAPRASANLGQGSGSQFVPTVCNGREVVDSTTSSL

[3] = reductive (DTT), oxidative (GSSG) or neutral conditions

Compound: COCCOCCOCCOCCOCCOCCOCCOCCOCCOCCOCCOCCC(=O)NCC(=O)Nc1ccc(/N=N/c2ccc(NC(=O)CCC[C@@H](C[C@H](N)C(=O)O)C(=O)O)cc2)cc1 [AG12, (2S,4S)-2-Amino-4-(4-oxo-4-((4-((E)-(4-(38-oxo-2,5,8,11,14,17,20,23,26,29,32,35-dodecaoxa-39-azahentetracontan-41-amido)phenyl)diazenyl)phenyl)amino)butyl)-pentanedioic acid]
- photoagonism of SNAP-mGluR2, directionality (SNAP-mGluR2; PCL version where the BG group was omitted): same directionality as BGAG12

Compound: Nc1nc(OCc2ccc(CNC(=O)CCC(=O)N3Cc4ccccc4-c4c(nnn4CCOCCOCCOCCOCCOCCOCCOCCOCCOCCOCCOCCOCCC(=O)NCCNc4ccc(/N=N/c5ccc(NC(=O)CCC[C@@H](C[C@H](N)C(=O)O)C(=O)O)cc5)cc4)-c4ccccc43)cc2)c2nc[nH]c2n1 [BGAG12(460), (2S,4S)-2-amino-4-(4-((4-((E)-(4-((1-(8-(4-((4-(((2-amino-9H-purin-6-yl)oxy)methyl)-benzyl)amino)-4-oxobutanoyl)-8,9-dihydro-1H-dibenzo[b,f][1,2,3]triazolo[4,5-d]azo-cin-1-yl)-39-oxo-3,6,9,12,15,18,21,24,27,30,33,36-dodecaoxa-40-azadotetra-contan-42-yl)amino)phenyl)diazenyl)phenyl)amino)-4-oxobutyl)pentanedioic acid]
- Relaxation following illumination (SNAP-mGluR2; in the dark after blue light): rapidly in the dark
- photoactivation relative to saturating glutamate (SNAP-mGluR2; labeling with 10 µM, blue light (420-470 nm bandpass), n=18 cells): 34.9 ± 4.2%

- light responses (wild type mGluR2): no light responses
Compound: Nc1nc(OCc2ccc(CNC(=O)CCc3cn(CCOCCOCCOCCOCCOCCOCCOCCOCCOCCOCCOCCOCCC(=O)NCC(=O)Nc4ccc(/N=N/c5ccc(NC(=O)CCC[C@@H](C[C@H](N)C(=O)O)C(=O)O)cc5)cc4)nn3)cc2)c2nc[nH]c2n1 [BGAG12, (2S,4S)-2-Amino-4-(4-((4-((E)-(4-(1-(4-(3-((4-(((2-amino-9H-purin-6-yl)oxy)methyl)benzyl)amino)-3-oxopropyl)-1H-1,2,3-triazol-1-yl)-39-oxo-3,6,9,12,15,18,21,24,27,30,33,36-dodecaoxa-40-azadotetracontan-42-amido)phenyl)diazenyl)phenyl)amino)-4-oxobutyl)pentanedioic acid]
- efficacy of optical activation on reuse of the labeling solution [1]: without a decline in efficacy of optical activation
- membrane hyperpolarization ([2]; illumination at 380 nm, reversed at 500 nm): 2-8 mV
- effect of light-induced hyperpolarization on firing ([2]; neurons at depolarized potentials that induced firing): sufficient to inhibit the action potentials
- reaction with SNAP-tag (SNAP-tag; [3]): reacts with SNAP-tag under each condition
- photocurrents (SNAP-mGluR2; 100 nM labeling for 45 minutes): photocurrents were still observed
- Light responses relative to the responses to saturating glutamate (SNAP-mGluR2; 10 µM for 45 minutes at 37 °C, washed, 380 nm, n=10 cells): 59.3 ± 2.8%
- concentration showing optimal labeling (SNAP-mGluR2; 45 minute incubation): ≥ 1 µM
- lowest concentration at which photocurrents were observed (SNAP-mGluR2; overnight labeling): 10 nM
- photocurrents (SNAP-mGluR2; overnight labeling at 100 nM, versus 45 minutes): increased

Compound: D-Maleimide-Azobenzene Glutamate [D-MAG]
- reaction with SNAP-tag (SNAP-tag; [3]): reacts only under oxidative and neutral conditions
- reaction with SNAP-tag (SNAP-tag; reductive conditions (DTT)): unreactive towards the SNAP-tag under reductive conditions
